The values below come from patent US5449680A, “2,2 disubstituted glycerol and glycerol-like compounds, compositions and methods of use” (Schering Corporation, priority 1992, dated 1995).

The subject of one assay is PAF-induced platelet aggregation. Nature of the assay: PAF-induced platelet aggregation in human platelet-rich plasma (PRP), in vitro PAF antagonism assay. The conditions noted are these: Dose 5 μM, 37° C, 2 min preincubation, PAF 1-5×10^-8 M, read-out: Percent Inhibition. The format is cell-based. The procedure:
These test procedures are standard tests used to determine PAF antagonistic activity and to evaluate the usefulness of said compounds for counteracting the biological effects of PAF. The in vitro assay is a simple screening test, while the in vivo test mimics clinical use of the compounds described herein.
Preparation of platelet-rich plasma (PRP): Human blood (50 ml) was collected from healthy male donors in an anticoagulant solution (5 ml) containing sodium citrate (3.8%) and dextrose (2%). Blood was centrifuged at 110× g for 15 min. and the supernatant (PRP) carefully transferred into a polypropylene tube. Platelet-poor-plasma (PPP) was prepared by centrifuging PRP at 12,000× g for 2 min. (Beckman Microfuge B). PRP was used within 3 hours of drawing the blood.
Platelet Aggregation Assay: When an aggregating agent such as PAF is added to PRP, platelets aggregate. An aggregometer quantifies this aggregation by measuring light transmission through PRP and comparing to PPP. The aggregation assays were performed using a dual channel aggregometer (Model 440, Chrono-Log Corp., Havertown, Penn.). PRP (0.45 ml)in aggregometer cuvettes was continually stirred (37° C). Solutions of test compounds or vehicle were added to the PRP, and after incubation for 2 min., 10-15 […] aliquots of PAF solution were added so as to achieve a final concentration of 1-5×10^-8 M. Incubations were continued until the increase in light transmission reached a maximum (usually 2 min). Values for inhibition were calculated by comparing maximal aggregation obtained in the absence and the presence of the compound. For each experiment, a standard PAF antagonist such as alprazolam was used as a positive internal control. The inhibitory concentration (IC50)is the concentration of compound in micromoles at which 50% of the aggregation is inhibited, as measured by the light transmission through each sample of PRP as compared to PPP.
In general, inhibition refers to the percentage by which the read-out fell short of the control. For `CCCCCCCCCCCCCCCCCCN(C)C(=O)OCC(C)(COP(=O)([O-])OCC[n+]1ccsc1)OC` (centres unmarked), the inhibition at 5 µM was determined as 50%.

Staying with this assay, now noted: Dose 10 μM, 37° C, 2 min preincubation, PAF 1-5×10^-8 M, read-out: Percent Inhibition.
`CCCCCCCCCCCCCCCCCCN(C)C(=O)OCC(C)(COCCCC[n+]1ccsc1)OC` (centres unmarked): the inhibition at 10 µM came out at 100%.

As to `CCCCCCCCCCCCCCCCCCNC(=O)OCC(C)(COP(=O)([O-])OCC[n+]1ccsc1)OC` (centres unmarked), the inhibition at 10 µM is 50%.

As for `CCCCCCCCCCCCCCCCCCN(C)C(=O)OCC(C)(COCCCCCCC[N+]1(C)CCSC1)OC` (centres unmarked), the inhibition at 10 µM was 93%.

Turning to `CCCCCCCCCCCCCCCCCCN(C)C(=O)OCC(C)(COCCCCCCCn1cc[n+](C)c1)OC` (centres unmarked), the inhibition at 10 µM came out at 93%.

Take `CCCCCCCCCCCCCCCCCCN(C)C(=O)OCC(C)(COC(=O)N(CC[n+]1ccccc1)C(C)=O)OC` (centres unmarked): the inhibition at 10 µM was determined as 100%.

Still in this assay, the particulars now being: Dose 50 μM, 37° C, 2 min preincubation, PAF 1-5×10^-8 M, read-out: Percent Inhibition.
In the case of `CCCCCCCCCCCCCCCCCCN(C)C(=O)OCC(C)(COCCCCCCC[n+]1ccsc1)[S+](C)[O-]` (centres unmarked), the inhibition at 50 µM was determined as 100%.

Turning to `CCCCCCCCCCCCCCCCCCN(C)C(=O)OCC(C)(CNS(=O)(=O)CCn1ccnc1)OC` (centres unmarked), the inhibition at 50 µM worked out at 12%.

As for `CCCCCCCCCCCCCCCCCCN(C)C(=O)OCC(C)(COC(=O)NCCCCC[n+]1ccsc1)OC` (centres unmarked), the inhibition at 50 µM worked out at 100%.

Regarding `CCCCCCCCCCCCCCCCCCN(C)C(=O)OCC(C)(COCCCCCCCN1CCSC1)OC` (centres unmarked), the inhibition at 50 µM turned out to be 10%.

`CCCCCCCCCCCCCCCCCCN(C)C(=O)OCC(C)(COCCCCCCCOC(=O)C1CSCN1)OC` (centres unmarked): the inhibition at 50 µM is 3%.

As for `CCCCCCCCCCCCCCCCCCN(C)C(=O)OCC(C)(COC(=O)NCC[n+]1ccsc1)OC` (centres unmarked), the inhibition at 50 µM amounted to 97%.

With `CCCCCCCCCCCCCCCCOCC(C)(COC(=O)NCC[n+]1ccsc1)OC` (centres unmarked), the inhibition at 50 µM was found to be 44%.

In the case of `CCCCCCCCCCCCCCCCCCN(C)C(=O)OCC(C)(CC)COCCCCCCC[n+]1ccsc1` (centres unmarked), the inhibition at 50 µM stood at 100%.

Regarding `CCCCCCCCCCCCCCCCCCN(C)C(=O)OCC(COP(=O)([O-])OCC[n+]1ccsc1)(OC)C(C)C` (centres unmarked), the inhibition at 50 µM was determined as 100%.

For the molecule `CCCCCCCCCCCCCCCCCCN(C)C(=O)OCC(C)(COCCCCCCC[n+]1ccsc1)OC` (centres unmarked), the inhibition at 50 µM stood at 100%.

On to `CCCCCCCCCCCCCCCCCCN(C)C(=O)OCC(CC)(COP(=O)([O-])OCC[n+]1ccsc1)OC` (centres unmarked), for which the inhibition at 50 µM turned out to be 100%.

Take `CCCCCCCCCCCCCCCCCCN(C)C(=O)OCC(C)(COCCCCCCC[n+]1ccsc1)SC` (centres unmarked): the inhibition at 50 µM stood at 100%.

As for `CCCCCCCCCCCCCCCCCCN(C)C(=O)OCC(C)(COCCCCCCCn1ccnc1N)OC` (centres unmarked), the inhibition at 50 µM was 17%.

Consider `CCCCCCCCCCCCCCCCCCN(C)C(=O)OCC(C)(CNC(=O)OCC[N+](C)(C)C)OC` (centres unmarked), for which the inhibition at 50 µM was 83%.

Regarding `CCCCCCCCCCCCCCCCCCN(C)C(=O)OCC(CC)(COP(=O)(O)OCCn1ccnc1)OC` (centres unmarked), the inhibition at 50 µM amounted to 23%.

For `CCCCCCCCCCCCCCCCCCN(C)C(=O)OCC(C)(COP(=O)([O-])OCC[n+]1ccccc1)OC` (centres unmarked), the inhibition at 50 µM came to 43%.

For `CCCCCCCCCCCCCCCCCCN(C)C(=O)OCC(C)(COCCCCCCCn1cnc(CC(=O)O)c1)OC` (centres unmarked), the inhibition at 50 µM is 19%.

For the molecule `CCCCCCCCCCCCCCCCCCN(C)C(=O)OCC(C)(COCCCCCCC[n+]1ccsc1)S(C)(=O)=O` (centres unmarked), the inhibition at 50 µM amounted to 100%.

For the molecule `CC(COCc1ccc(CN2CCSC2=N)cc1)(COC(=O)Nc1ccccc1)S(C)(=O)=O` (centres unmarked), the inhibition at 50 µM worked out at 90%.

As for `CCCCCCCCCCCCCCCCCCN(C)C(=O)OCC(C)(COC(=O)NCC[N+](C)(C)C)OC` (centres unmarked), the inhibition at 50 µM turned out to be 67%.

For the molecule `CCCCCCCCCCCCCCCCCCN(C)C(=O)OCC(C)(COCCCCCCCn1cnc(CC(=O)OCc2ccccc2)c1)OC` (centres unmarked), the inhibition at 50 µM amounted to 19%.

For the molecule `CCCCCCCCCCCCCCCCCCN(C)C(=O)OCC(C)(COCc1ccc(C[n+]2ccsc2)cc1)OC` (centres unmarked), the inhibition at 50 µM was determined as 100%.

With `COC(C)(COCCCCCCCN1CCSC1=N)COC(=O)Nc1ccc(F)cc1F` (centres unmarked), the inhibition at 50 µM is 91%.

Regarding `CCCCCCCCCCCCCCCCCCN(C)C(=O)OCC(C)(CNC(=O)OCC[n+]1ccccc1)OC` (centres unmarked), the inhibition at 50 µM was 100%.

Consider `CCCCCCCCCCCCCCCCOCC(C)(COC(=O)OCC[N+]1(C)CCCC1)OC` (centres unmarked), for which the inhibition at 50 µM turned out to be 32%.

With `COC(C)(COCCCCCCC[n+]1ccsc1)COC(=O)Nc1ccccc1` (centres unmarked), the inhibition at 50 µM amounted to 100%.

Consider `CCCCCCCCCCCCCCCCOCC(C)(COC(=O)OCC[n+]1ccccc1)OC` (centres unmarked), for which the inhibition at 50 µM is 68%.

As to `CCCCCCCCCCCCCCCCCCN(C)C(=O)OCC(C)(COCCCCCCCOC(=O)C(N)CSC)OC` (centres unmarked), the inhibition at 50 µM is 28%.

The assay is the same for the next values; noted with them: Dose 100 μM, 37° C, 2 min preincubation, PAF 1-5×10^-8 M, read-out: Percent Inhibition.
Turning to `CCCCCCCCCCCCCCCCOCC(C)(COC(=O)OCC[N+](C)(C)C)OC` (centres unmarked), the inhibition at 100 µM came out at 100%.
